Experiments:
5-HT2A receptor = 5-HT2A receptor (Homo sapiens (Human), UniProt P28223); test: biochemical; type: binding; details: radioligand [3H]-ketanserin, cell membrane, 27° C. 90 min
Description: Compound binding was calculated as a % inhibition of the binding of a radioactively labeled ligand specific for each receptor. Results with inhibition >50% were considered to represent significant effects. In each experiment, the respective reference compound was tested in parallel with the test compounds, and the data were compared with previous values determined at Eurofins.
Bovine Serum Albumin (BSA), calcium chloride (CaCl2)), and polyethylenimine, branched (PEI) were purchased from Sigma. Tris(hydroxymethl)aminomethane (Tris) was purchased from Alfa Aesar.
Microbeta^2 microplate counter, MicroBeta Filtermate-96, and UniFilter-96 GF/C were purchased from PerkinElmer. TopSeal was purchased from Biotss. Seven Compact pH meter was purchased from Mettler Toledo. Ultrapure water meter was purchased from Sichuan Ulupure. Benchtop Centrifuge was purchased from Hunan Xiangyi. Microplate shaker was purchased from Allsheng. 384-Well Polypropylene Microplate was purchased from Labcyte. 96 round well plate was purchased from Corning. 96 round deep well plate was purchased from Axygen. Echo was purchased from LABCYTE. • 1. Prepare the assay buffer following the table below:
• 2. […] Read the plate by using a Microbeta^2 microplate counter.
• 11. […] The IC50 is determined by fitting percentage of inhibition function of compound concentrations with Hill equation using XLfit.

5-HT2C receptor = 5-HT2C receptor (Homo sapiens (Human), UniProt P28335); test: biochemical; type: binding; details: radioligand [3H]-Mesulergine, cell membrane, 27° C. 60 min
Sequence of 5-HT2C receptor (P28335 33-458 limits assumed): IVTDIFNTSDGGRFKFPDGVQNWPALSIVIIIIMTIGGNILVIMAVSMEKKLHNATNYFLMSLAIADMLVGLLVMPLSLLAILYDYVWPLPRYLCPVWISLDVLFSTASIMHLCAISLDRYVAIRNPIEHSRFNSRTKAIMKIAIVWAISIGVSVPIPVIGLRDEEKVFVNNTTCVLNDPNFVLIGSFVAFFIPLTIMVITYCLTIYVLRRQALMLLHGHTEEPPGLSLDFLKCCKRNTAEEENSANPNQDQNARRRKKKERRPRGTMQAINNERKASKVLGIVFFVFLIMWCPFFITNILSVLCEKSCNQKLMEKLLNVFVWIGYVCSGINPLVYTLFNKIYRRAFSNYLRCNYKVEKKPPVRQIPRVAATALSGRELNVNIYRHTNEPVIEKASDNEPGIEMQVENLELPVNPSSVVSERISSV

| SMILES | IC50 (5-HT2A receptor) [nM] | IC50 (5-HT2C receptor) [nM] |
| --- | --- | --- |
| [2H]C([2H])([2H])N1C[C@@H](NC(=O)N(CC)OC)C=C2c3cccc4[nH]cc(c34)C[C@H]21 [Example 6a, 1-ethyl-1-methoxy-3-((6aR,9S)-7-(methyl-d3)-4,6,6a,7,8,9-hexahydroindolo[4,3-fg]quinolin-9-yl)urea] | 2.6 | 96 |
| [2H]C([2H])([2H])N1C[C@H](NC(=O)N(CC)OC)C=C2c3cccc4[nH]cc(c34)C[C@H]21 [Example 6b, 1-ethyl-1-methoxy-3-((6aR,9R)-7-(methyl-d3)-4,6,6a,7,8,9-hexahydroindolo[4,3-fg]quinolin-9-yl) urea] | 6.5 | 312 |
